The text below walks through data of US20240189263A1, “DERIVATIZED C60 MOLECULES AND METHODS AND MATERIALS FOR USING DERIVATIZED C60 MOLECULES TO REDUCE RADIATION INJURY” (Mayo Foundation for Medical Education and Research, priority 2021, published 2024).

Series [1] has as its system HUVEC cells. The series is described as follows: Seahorse mitochondrial respiration (oxygen consumption rate), HUVEC. It is filed as cell-based. Conditions: pretreated 2 hours before 1 Gy 230 MeV proton. Here is the method:
(§1) The oxygen consumption rates were assessed in N2A, HUVEC, NIH3T3, and HepG2 cell lines with a Seahorse XFe96 (Agilent Technologies, Santa Clara, CA, USA). Cells were treated with 0 and 1 Gy of 230 MeV proton irradiation. The control plates were run at about the same time post plating. Each cell line was optimized prior to these experiments, and data was presented normalized to cell number plated. The standard mitochondrial stress test was performed using serial injections of oligomycin (1.5 μM), carbonyl cyanide p-(trifluoromethoxy)phenylhydrazone (FCCP, 1 μM), and rotenone/antimycin A mixture (0.5 μM). After injection of oligomycin, which inhibits ATP synthase (complex V), there was a drop in electron flow through the electron transport chain (ETC) and a resultant drop in oxygen consumption rate (OCR) of the cells. Injection of FCCP collapsed the proton gradient and allowed for uninhibited electron flow through the ETC supercomplexes. […] The reserve respiratory capacity was calculated by subtracting the basal respiratory capacity from the maximal respiratory capacity.

Series [2] concerns N2A cells. As to the kind of experiment: MTS cytotoxicity assay, N2A. It counts as cell-based. Conditions: 1-1000 μM, 24, 48 or 72 hours. The protocol:
Cytotoxicity of C60-ser was determined by an MTS (3-(4,5-dimethylthiazol-2-yl)-5-(3-carboxymethoxyphenyl)-2-(4-sulfophenyl)-2H-tetrazolim) colorimetric assay on four different cell lines, each representing a different cell type. Specifically, HepG2 (liver epithelium), HUVEC (endothelial cells), N2A (neuroblastoma cells representative of normal neurons), and NIH3T3 (fibroblasts) were analyzed. The cells were seed in a 96-well tissue culture polystyrene plate at different seeding concentrations based on the cell's doubling time. HUVEC cells were seeded at 10,000 cells/well (24 hour experiments), 8,000 cells/well (48 hour experiments), and 5,000 cells/well (72 hour experiments), and incubated for 24 hours in a humidified atmosphere with 5% C02 at 37° C. […] After incubation with MTS, the optical density (OD) of the resulting formazan solution was read at 490 nm using a microplate reader (Biotek Cytation 5 cell Imaging Multi-Mode reader, Winooski, VT). The cell viability was obtained by normalizing the absorbance of the sample with that of the control wells containing untreated cells. The cell viability was expressed as a percentage, assigning the viability of non-treated cells as 100%. […]
(Formazan colour is commonly taken as a measure of viable cells.)

Series [3] is described as follows: Dynamic light scattering analysis of C60-ser aggregates. It is filed as physicochemical. Particulars: for Predominant aggregate sizes: in PBS. Here is the method: Dynamic light scattering (DLS) was used to observe the aggregation process of C60-ser. Dynamic light scattering heatmaps were created by combining multiple normalized particle number weighted distribution (PNWD) plots. The PNWD plots compared the log of the relative scattering intensity versus particle size, at angles of 173°. The refractive index was assumed to be n=1.34, the absorption constant to be k=0.001, and the solution viscosity to be that of water, corrected for temperature (η=0.888 mPa s). Plots were collected with a 0.2° C. interval. Each temperature interval was held constant for more than 45 minutes before performing the next measurement, to ensure the presence of an aggregation equilibrium.

The test system of series [4] is N2A cells. The series is described as follows: ROS by H2-DCFDA probe after proton irradiation, N2A. Particulars: pretreated 100 μM, TBHP 200 μM, 1 Gy proton, read 30 minutes post radiation. It counts as cell-based. The source says: Cell lines were irradiated using pencil beam scanning (PBS) proton beams produced by IBA ProteusOne (Ion Beam Applications, Louvain-la-Neuve, Belgium). Single layer mono-energy 227 MeV pencil beams with uniform spacing of 0.25 cm between each spot were used to create a large field size with uniform dose distribution (±2%) that encompassed all sample wells containing the cells. A fixed source to surface distance (SSD) setup and gantry at 180 degrees was used to delivery 0.5, 1, 2, 4, and 6 Gray (Gy) dose of ionizing radiation to cells. The cells were place at an 8 cm depth, with a linear energy transfer (LET) of approximately 1.7 keV/μm, using solid water slabs as a buildup. […] The monitor units needed to deliver the intended dose were calculated using the measure dose/MU values.
Post radiation, 2′,7′-dichlorodihydrofluorescein diacetate (H2-DCFDA) probes were used to measure the level of reactive oxygen species (ROS) post-proton radiation (1 Gy, 230 MeV proton beam). […] A fluorescence microplate reader (SpectraMax M5, Molecular Devices Corporation, California, USA) was used to detect the generation of fluorescent DCF molecules with an excitation filter of 485 nm and an emission filter of 525 nm, with a 515 nm cutoff filter. […] Following irradiation, the cells were transported back for plate reading, 30 minutes post radiation.

Series [5] deals with HepG2 cells. The series is described as follows: Seahorse mitochondrial respiration (oxygen consumption rate), HepG2. It is filed as cell-based. Particulars: HepG2, pretreated 2 hours before 1 Gy 230 MeV proton. The protocol:
as §1

For `O=C(NC(CO)CO)C1(C(=O)NC(CO)CO)C23c4c5c6c7c8c4-c4c2c2c9c%10c4C4%11c%12c-%10c%10c%13c%14c%12-c%12c(c-7c7c%15c%12C%14%12C(C(=O)NC(CO)CO)(C(=O)NC(CO)CO)C%12%14c%12c%16c%17c%18c(c%12-%15)C7%12C(C(=O)NC(CO)CO)(C(=O)NC(CO)CO)C6%12c6c-5c5c7c(c6-%18)C%176C(C(=O)NC(CO)CO)(C(=O)NC(CO)CO)C6%12c6c-7c(c-2c2c6-c6c%12c-%16c%14c-%13c6C%106C(C(=O)NC(CO)CO)(C(=O)NC(CO)CO)C926)C513)C84C%11(C(=O)NC(CO)CO)C(=O)NC(CO)CO` (stereo not shown) [C60-ser, C60-serinol], the “radiation-induced increase in respiratory capacity” value is recorded as “dampened and, in some cases, reduced to normal or slightly below normal levels” in series [1] and “dampened and, in some cases, reduced to normal or slightly below normal levels” in series [5]. In addition, in series [2], the percent viability entry is on record as “did not result in a significant decrease in viability”. For the same molecule, the Predominant aggregate sizes stood at 260 ± 38 nm in series [3] (0.1 mg/mL, 37 ° C.); 290 ± 73 nm in series [3] (10 mg/mL, 4 ° C.); 233 ± 56 nm in series [3] (10 mg/mL, 37 ° C.). Also, the size of aggregates in series [3] (dynamic equilibrium in water) is recorded as 100-2000 nm. In addition, in series [3] (dynamic equilibrium in water), the “size of conjugate monomers” value is listed as around 3 nm. The “diameters of individual molecules” value in series [3] (initially, when dissolved in water) is recorded as 3-4 nm. The “ROS (H2-DCFDA fluorescence)” value in series [4] is on record as “significant reduction in ROS”.
